Data from PubChem BioAssay AID328 (DTP/NCI, 2004).
Where “and” joins values, the source holds several entries; their conditions need not be identical. Equal values may be shown once. Inconclusive results and toxic doses are left out. Rule for the calls: active = survival T/C of 150% or more; inactive = T/C below 125% in these data.

System: BDF1 mice, P388 leukemia ip, median survival T/C
Assay: NCI In Vivo Anticancer Drug Screen. Data for tumor model P388 Leukemia (intraperitoneal) in B6D2F1 (BDF1) mice
Conditions: endpoint: median survival time, higher = longer survival
Outline: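 Steps: implant the tumour, treat one group with compound and another with vehicle, record survival, then divide treated by control.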

[1] = dose: 100.0 mg/kg/injection, schedule: Q01DX009 (ip), vehicle: Klucel (hydroxypropylcellulose) (HPC)
[2] = dose: 100.0 mg/kg/injection, schedule: Q04DX003 (ip), vehicle: Klucel (hydroxypropylcellulose) (HPC)
[3] = dose: 200.0 mg/kg/injection, schedule: Q04DX003 (ip), vehicle: Klucel (hydroxypropylcellulose) (HPC)
[4] = dose: 400.0 mg/kg/injection, schedule: Q04DX003 (ip), vehicle: Klucel (hydroxypropylcellulose) (HPC)
[5] = dose: 100.0 mg/kg/injection, schedule: Q04DX003 (ip), vehicle: other
[6] = dose: 200.0 mg/kg/injection, schedule: Q04DX003 (ip), vehicle: other
[7] = dose: 400.0 mg/kg/injection, schedule: Q04DX003 (ip), vehicle: other
[8] = dose: 50.0 mg/kg/injection, schedule: Q01DX009 (ip), vehicle: other
[9] = dose: 100.0 mg/kg/injection, schedule: Q04DX003 (ip), vehicle: saline with Tween-80
[10] = dose: 200.0 mg/kg/injection, schedule: Q04DX003 (ip), vehicle: saline with Tween-80
[11] = dose: 400.0 mg/kg/injection, schedule: Q04DX003 (ip), vehicle: saline with Tween-80
[12] = dose: 100.0 mg/kg/injection, schedule: Q01DX009 (ip), vehicle: other

Measured: T/C

O=c1ccccn1C/C(=N\O)c1ccccc1
inactive: [1] 95 % of control | [2] 100 % of control | dose: 200.0 mg/kg/injection, schedule: Q01DX009 (ip), vehicle: Klucel (hydroxypropylcellulose) (HPC) 95 % of control | [3] 95 % of control | dose: 400.0 mg/kg/injection, schedule: Q01DX009 (ip), vehicle: Klucel (hydroxypropylcellulose) (HPC) 100 % of control | [4] 100 % of control

N=C(N)CCNC(=O)C1CCC(N)=N1 (stereo unspecified)
inactive: dose: 2.0 mg/kg/injection, schedule: Q01DX009 (ip), vehicle: saline 91 % of control | dose: 4.0 mg/kg/injection, schedule: Q01DX009 (ip), vehicle: saline 100 % of control | dose: 8.0 mg/kg/injection, schedule: Q01DX009 (ip), vehicle: saline 108 % of control

CCCCN1C(=O)C/C(=C2\CC(=O)N(CCCC)C2=O)C1=O
inactive: [2] 116 % of control | [3] 95 % of control | [4] 95 % of control

NC(N)=N/N=C/c1cccc2ccccc12
inactive: dose: 6.25 mg/kg/injection, schedule: Q01DX009 (ip), vehicle: saline with Tween-80 100 % of control | dose: 12.5 mg/kg/injection, schedule: Q01DX009 (ip), vehicle: saline with Tween-80 108 % of control | dose: 25.0 mg/kg/injection, schedule: Q01DX009 (ip), vehicle: saline with Tween-80 108 % of control

CC1(C)CC(C)(c2ccccc2)c2ccccc21 (stereo unspecified)
inactive: [1] 120 % of control | [5] 109 % of control | dose: 132.0 mg/kg/injection, schedule: Q01DX009 (ip), vehicle: Klucel (hydroxypropylcellulose) (HPC) 90 % of control | [6] 114 % of control | dose: 300.0 mg/kg/injection, schedule: Q01DX009 (ip), vehicle: Klucel (hydroxypropylcellulose) (HPC) 100 % of control | [7] 104 % of control

C[C@]12CC[C@H]3[C@@H](CC[C@@H]4C[C@@H](O)CC[C@@]43C=O)[C@]13O[C@@H]3CC2c1ccc(=O)oc1 (stereo partly specified)
inactive: dose: 0.25 mg/kg/injection, schedule: Q01DX009 (ip), vehicle: Klucel (hydroxypropylcellulose) (HPC) 100 % of control | dose: 0.5 mg/kg/injection, schedule: Q01DX009 (ip), vehicle: Klucel (hydroxypropylcellulose) (HPC) 98 % of control | dose: 1.0 mg/kg/injection, schedule: Q01DX009 (ip), vehicle: Klucel (hydroxypropylcellulose) (HPC) 98 % of control | dose: 2.0 mg/kg/injection, schedule: Q01DX009 (ip), vehicle: Klucel (hydroxypropylcellulose) (HPC) 100 % of control

NC(=S)NCCO
inactive: dose: 100.0 mg/kg/injection, schedule: Q01DX001 (ip), vehicle: saline 104 % of control | dose: 200.0 mg/kg/injection, schedule: Q01DX001 (ip), vehicle: saline 95 % of control | dose: 400.0 mg/kg/injection, schedule: Q01DX001 (ip), vehicle: saline 100 % of control

CC(C)(C)c1cccc(S(=O)(=O)Oc2ccccc2[N+](=O)[O-])c1
inactive: dose: 100.0 mg/kg/injection, schedule: Q01DX001 (ip), vehicle: saline sonified 100 % of control | dose: 200.0 mg/kg/injection, schedule: Q01DX001 (ip), vehicle: saline sonified 118 % of control | dose: 400.0 mg/kg/injection, schedule: Q01DX001 (ip), vehicle: saline sonified 95 % of control

c1ccc2sc(SNC3CCCCC3)nc2c1
inactive: dose: 200.0 mg/kg/injection, schedule: Q04DX002 (ip), vehicle: saline 103 % of control | dose: 400.0 mg/kg/injection, schedule: Q04DX002 (ip), vehicle: saline 122 % of control

FC(F)(F)C(F)(F)c1nc2nc(Cl)c(Cl)nc2[nH]1
inactive: dose: 25.0 mg/kg/injection, schedule: Q01DX009 (ip), vehicle: other 100 % of control | [8] 114 % of control

OC1OC(COC(c2ccccc2)(c2ccccc2)c2ccccc2)C(O)C(O)C1O (stereo unspecified)
inactive: dose: 10.0 mg/kg/injection, schedule: Q01DX009 (ip), vehicle: saline 123 % of control | dose: 12.5 mg/kg/injection, schedule: Q01DX009 (ip), vehicle: saline 88 % of control | dose: 20.0 mg/kg/injection, schedule: Q01DX009 (ip), vehicle: saline 108 % of control | dose: 25.0 mg/kg/injection, schedule: Q01DX009 (ip), vehicle: saline 104 % of control and 115 % of control | dose: 40.0 mg/kg/injection, schedule: Q01DX009 (ip), vehicle: saline 114 % of control | dose: 50.0 mg/kg/injection, schedule: Q01DX009 (ip), vehicle: saline 101 % of control and 123 % of control | dose: 80.0 mg/kg/injection, schedule: Q01DX009 (ip), vehicle: saline 107 % of control | dose: 100.0 mg/kg/injection, schedule: Q01DX009 (ip), vehicle: saline 90 % of control and 104 % of control and 105 % of control | dose: 100.0 mg/kg/injection, schedule: Q01DX009 (ip), vehicle: water 100 % of control | [9] 110 % of control | dose: 100.0 mg/kg/injection, schedule: Q04DX003 (ip), vehicle: saline 90 % of control | dose: 100.0 mg/kg/injection, schedule: Q04DX003 (ip), vehicle: water 105 % of control | dose: 200.0 mg/kg/injection, schedule: Q01DX009 (ip), vehicle: water 105 % of control | [10] 105 % of control | dose: 200.0 mg/kg/injection, schedule: Q04DX003 (ip), vehicle: saline 95 % of control | dose: 200.0 mg/kg/injection, schedule: Q04DX003 (ip), vehicle: water 110 % of control | dose: 400.0 mg/kg/injection, schedule: Q01DX009 (ip), vehicle: water 105 % of control | [11] 110 % of control | dose: 400.0 mg/kg/injection, schedule: Q04DX003 (ip), vehicle: water 110 % of control

COC(=O)C(CSCSC)NC(=O)Nc1ccc(F)cc1 (stereo unspecified)
inactive: dose: 100.0 mg/kg/injection, schedule: Q01DX009 (ip), vehicle: saline with Tween-80 100 % of control | [9] 100 % of control | dose: 200.0 mg/kg/injection, schedule: Q01DX009 (ip), vehicle: saline with Tween-80 100 % of control | [10] 95 % of control | dose: 400.0 mg/kg/injection, schedule: Q01DX009 (ip), vehicle: saline with Tween-80 109 % of control | [11] 90 % of control

O=[N+]([O-])c1ccc2c(c1)CCCC2
inactive: [12] 113 % of control | [5] 109 % of control | dose: 200.0 mg/kg/injection, schedule: Q01DX009 (ip), vehicle: other 118 % of control | [6] 118 % of control | dose: 400.0 mg/kg/injection, schedule: Q01DX009 (ip), vehicle: other 122 % of control | [7] 113 % of control

CCCCCCCCCCCCCCCCCCCC
inactive: dose: 6.25 mg/kg/injection, schedule: Q04DX003 (ip), vehicle: other 100 % of control | dose: 12.5 mg/kg/injection, schedule: Q04DX003 (ip), vehicle: other 100 % of control | dose: 25.0 mg/kg/injection, schedule: Q04DX003 (ip), vehicle: other 100 % of control | [8] 100 % of control | [12] 100 % of control

CC(C)(C)c1cccc(C(C)(C)C)c1OC(=O)NS(=O)(=O)c1ccccc1
inactive: dose: 12.5 mg/kg/injection, schedule: Q04DX003 (ip), vehicle: saline 111 % of control | dose: 25.0 mg/kg/injection, schedule: Q04DX003 (ip), vehicle: saline 105 % of control | dose: 50.0 mg/kg/injection, schedule: Q04DX003 (ip), vehicle: saline 100 % of control | dose: 75.0 mg/kg/injection, schedule: Q04DX003 (ip), vehicle: Klucel (hydroxypropylcellulose) (HPC) 104 % of control | dose: 115.0 mg/kg/injection, schedule: Q04DX003 (ip), vehicle: Klucel (hydroxypropylcellulose) (HPC) 104 % of control
